Here are results for two molecules from patent publication US6844306B2, “Water-soluble, chlorhexidine-containing compositions and use thereof” (Degussa AG, priority 2000, dated 2005).

For data set [1] the following is noted: cited from earlier work.
The text on data set [2]:
Ion concentrations exceeding the maximum values established by the solubility product should lead to precipitations.

As to `CCCCCCCCCCCCCCCC[N+](C)(C)C.[Br-]` [cetrimide, N-cetyl-N,N,N-trimethylammonium bromide], in data set [1], the water solubility result is on record as “approx. 67 g/l”.
For the molecule `Br.Br.N=C(NCCCCCCNC(=N)NC(=N)Nc1ccc(Cl)cc1)NC(=N)Nc1ccc(Cl)cc1` [chlorhexidine dibromide], in data set [2], the “bromide ions in saturated chlorhexidine bromide solution” value was around 450 mg per liter and the “chlorhexidine dication in saturated chlorhexidine bromide solution” value was “approximately 1400 mg per liter”.
